Source: ChEMBL document CHEMBL6153135, “Rational Design of a Potent, Selective, and Metabolically Stable CDK9 Inhibitor to Counteract Osimertinib Resistance through Mcl-1 Suppression and Enhanced BRD4 Co-Targeting” (J Med Chem, 2025)
Activity calls are given as the source filed them. No cut-off for these calls is given here.

Experiments:
[1] = Metabolic stability in human liver microsomes assessed as half life measured for 5 to 60 mins by LC-MS/MS analysis; assay type: ADME, Microsome; details: time 5-60 min
CDK2/Cyclin A2 = CDK2/Cyclin A2 (Homo sapiens, UniProt P24941); experiment: Inhibition of CDK2/Cyclin A2 (unknown origin) preincubated for 10 mins followed by substrate/ATP measured after 60 mins by ADP-Glo assay; assay type: protein-complex assay
[2] = Metabolic stability in mouse liver microsomes assessed as half life measured for 5 to 60 mins by LC-MS/MS analysis; assay type: ADME, Microsome; details: time 5-60 min
[3] = Metabolic stability in monkey liver microsomes assessed as half life measured for 5 to 60 mins by LC-MS/MS analysis; assay type: ADME, Macaca mulatta, Microsome; details: rhesus monkey, time 5-60 min
[4] = Metabolic stability in dog liver microsomes assessed as half life measured for 5 to 60 mins by LC-MS/MS analysis; assay type: ADME, Canis lupus familiaris, Microsome; details: time 5-60 min
[5] = Metabolic stability in dog liver microsomes assessed as clearance measured for 5 to 60 mins by LC-MS/MS analysis; assay type: ADME, Canis lupus familiaris, Microsome; details: time 5-60 min, read-out: CLH
[6] = Metabolic stability in human liver S9 fraction assessed as clearance measured for 5 to 60 mins by LC-MS/MS analysis; assay type: ADME, subcellular; details: time 5-60 min, read-out: CLH
[7] = AUC (0 to t) in Sprague-Dawley rat at 2 mg/kg, iv; assay type: ADME, organism-based; details: in vivo
[8] = Apparent volume of distribution in Sprague-Dawley rat at 2 mg/kg, iv; assay type: ADME, organism-based; details: in vivo, read-out: Vz
[9] = AUC (0 to t) in Sprague-Dawley rat at 20 mg/kg, po; assay type: ADME, organism-based; details: in vivo
[10] = Half life in BALB/c mouse at 2 mg/kg, iv; assay type: ADME, organism-based; details: in vivo
[11] = AUC (0 to t) in BALB/c mouse at 15 mg/kg, po; assay type: ADME, organism-based; details: in vivo
[12] = Half life in BALB/c mouse at 15 mg/kg, po; assay type: ADME, organism-based; details: in vivo
[13] = Apparent volume of distribution in BALB/c mouse at 15 mg/kg, po; assay type: ADME, organism-based; details: in vivo
[14] = target: CDK9/cyclin T1 (Homo sapiens) (UniProt O60563+P50750); experiment: Inhibition of CDK9/cyclin T1 (unknown origin) at 100 nM preincubated for 10 mins followed by substrate/ATP measured after 60 mins by ADP-Glo assay relative to control; assay type: protein-complex assay; details: time 70.0 min
[15] = target: Glycogen synthase kinase-3 beta (Homo sapiens) (UniProt P49841); experiment: Inhibition of GSK3beta (unknown origin) at 100 nM preincubated for 10 mins followed by substrate/ATP measured after 60 mins by ADP-Glo assay relative to control; details: time 70.0 min
[16] = target: Cyclin-dependent kinase 4/cyclin D1 (Homo sapiens) (UniProt P11802+P24385); experiment: Inhibition of CDK4/Cyclin D1 (unknown origin) at 100 nM preincubated for 10 mins followed by substrate/ATP measured after 60 mins by ADP-Glo assay relative to control; assay type: protein-complex assay; details: time 70.0 min
[17] = target: CDK7/Cyclin H/MNAT1 (Homo sapiens) (UniProt P51946+P50613+P51948); experiment: Inhibition of CDK7/Cyclin H/MAT1 (unknown origin) at 100 nM preincubated for 10 mins followed by substrate/ATP measured after 60 mins by ADP-Glo assay relative to control; assay type: protein-complex assay; details: time 70.0 min
Homo sapiens = species: Homo sapiens; experiment: Inhibition of CDK12/Cyclin E1(unknown origin) at 100 nM preincubated for 10 mins followed by substrate/ATP measured after 60 mins by ADP-Glo assay relative to control; details: time 70.0 min
[18] = test system: Osimertinib-resistant NCI-H1975 cell; experiment: Induction of apoptosis in human Osimertinib-resistant NCI-H1975 cells assessed as early apoptotic cells at 0.5 uM incubated for 16 hrs by Annexin V-FITC/PI staining based flow cytometry (reference value: 8.02 %); assay type: functional
[19] = test system: Osimertinib-resistant NCI-H1975 cell; experiment: Induction of apoptosis in human Osimertinib-resistant NCI-H1975 cells assessed as viable cells at 2 uM incubated for 16 hrs by Annexin V-FITC/PI staining based flow cytometry (reference value: 89.4 %); assay type: functional; details: read-out: Activity
NCI-H1975 = experiment: Anti-proliferative activity against human NCI-H1975 cells assessed as cell inhibition measured after 72 hrs in presence of 500 nM JQ1 by MTT assay; assay type: functional, cell-based; details: NCI-H1975, 72 h
HCC827 [20] = experiment: Anti-proliferative activity against human HCC827 cells assessed as cell inhibition measured after 72 hrs in presence of 250 nM JQ1 by MTT assay; assay type: functional, cell-based; details: HCC827, 72 h
HCC827 [21] = experiment: Anti-proliferative activity against human HCC827 cells assessed as cell inhibition measured after 72 hrs in presence of 100 nM JQ1 by MTT assay; assay type: functional, cell-based; details: HCC827, 72 h
[22] = Anti-proliferative activity against human Osimertinib-resistant HCC827 cells assessed as cell inhibition measured after 72 hrs in presence of 500 nM JQ1 by MTT assay; assay type: functional, cell-based
[23] = test system: Osimertinib-resistant NCI-H1975 cell; experiment: Anti-proliferative activity against human Osimertinib-resistant NCI-H1975 cells assessed as cell inhibition measured after 72 hrs in presence of 500 nM JQ1 by MTT assay; assay type: functional, cell-based
[24] = test system: Osimertinib-resistant NCI-H1975 cell; experiment: Anti-proliferative activity against human Osimertinib-resistant NCI-H1975 cells assessed as cell inhibition measured after 72 hrs in presence of 100 nM JQ1 by MTT assay; assay type: functional, cell-based
[25] = Selectivity ratio of IC50 for anti-proliferative activity against human Osimertinib-resistant HCC827 cells to IC50 for anti-proliferative activity against human Osimertinib-resistant HCC827 cells in presence of JQ1; assay type: functional
[26] = test system: Osimertinib-resistant HCC827 cell; experiment: Inhibition of colony formation in human Osimertinib-resistant HCC827 cells at 12.5 nM measured after 14 days in presence of JQ1 by crystal violet staining based analysis; assay type: functional; details: time 14.0 day
[27] = test system: Osimertinib-resistant HCC827 cell; experiment: Upregulation of c-Myc mRNA level in human Osimertinib-resistant HCC827 cells by RNA-Seq analysis; assay type: functional, cell-based
[28] = test system: Osimertinib-resistant HCC827 cell; experiment: Inhibition of cell cycle regulation in human Osimertinib-resistant HCC827 cells by KEGG analysis; assay type: functional, cell-based
[29] = test system: Lung adenocarcinoma organoid; experiment: Anti-tumor activity against Osimertinib-resistant patient (#0085)-derived human Lung adenocarcinoma organoid assessed as inhibition of cell viability measured after 96 hrs relative to control; assay type: functional, Neoplasm
[30] = test system: Lung adenocarcinoma organoid; experiment: Anti-tumor activity against patient (#2223)-derived human Lung adenocarcinoma organoid assessed as inhibition of cell viability measured after 96 hrs; assay type: functional, tissue-based; details: Neoplasm
[31] = test system: Lung adenocarcinoma organoid; experiment: Anti-tumor activity against patient (#2514)-derived human Lung adenocarcinoma organoid assessed as inhibition of cell viability measured after 96 hrs relative to control; assay type: functional, Neoplasm
[32] = Toxicity in BALB-c nude mouse xenografted with human NCI-H1975 cells assessed as body weight loss at 15 mg/kg, iv administered on every two days; assay type: organism-based; details: in vivo
[33] = Antitumor activity against human Osimertinib-resistant HCC827 cells xenografted in BALB-c nude mouse assessed as tumor growth inhibition at 5 mg/kg, iv in presence of JQ1 relative to control; assay type: functional; details: Osimertinib-resistant HCC827 cell, read-out: TGI
Mus musculus = experiment: In vivo inhibition of CDK9 in BALB-c nude mouse xenografted with human Osimertinib-resistant HCC827 cells assessed as decrease in Mcl-1 level in tumor tissue at 5 mg/kg, iv in presence of JQ1 by Western blot analysis; assay type: functional, organism-based

Chain of Glycogen synthase kinase-3 beta (Homo sapiens) (P49841 whole entry, looked up): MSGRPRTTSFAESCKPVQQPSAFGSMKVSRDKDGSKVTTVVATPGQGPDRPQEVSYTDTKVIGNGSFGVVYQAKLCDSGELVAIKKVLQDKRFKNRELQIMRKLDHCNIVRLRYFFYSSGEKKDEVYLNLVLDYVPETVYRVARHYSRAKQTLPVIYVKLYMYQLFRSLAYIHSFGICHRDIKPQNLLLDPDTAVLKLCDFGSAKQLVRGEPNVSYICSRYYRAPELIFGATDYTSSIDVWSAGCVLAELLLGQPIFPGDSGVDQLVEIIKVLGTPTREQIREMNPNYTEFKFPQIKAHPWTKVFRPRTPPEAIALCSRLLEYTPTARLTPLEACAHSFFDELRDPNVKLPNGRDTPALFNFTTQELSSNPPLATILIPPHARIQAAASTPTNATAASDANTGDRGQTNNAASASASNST

Q: Which half-life [1] does the source give for `CC(=O)N1CCC(NC(=O)c2ccc3cc2OCCCCCCOc2cc(ccc2F)-c2nc(ncc2F)N3)CC1` here?
A: Its half-life is 2.14 h.

Q: And the IC50 (CDK2/Cyclin A2)?
A: The IC50 was 126 nM.

Q: What about the half-life [2] of the same molecule?
A: Its half-life is 1.07 h.

Q: What about the half-life [3] of the same molecule?
A: Its half-life is 0.985 h.

Q: What about the half-life [4] of the same molecule?
A: Its half-life is 1.25 h.

Q: And the microsomal CLint [5]?
A: The microsomal CLint was 18.4 µL/min/mg.

Q: And the microsomal CLint [6]?
A: The microsomal CLint was 14.2 µL/min/mg.

Q: And the AUC(0-t) [7]?
A: Its AUC(0-t) is 2530 ng·h/mL.

Q: What about the Vd [8] of the same molecule?
A: Its Vd is 1.9 L/kg.

Q: What about the AUC(0-t) [9] of the same molecule?
A: Its AUC(0-t) is 3610 ng·h/mL.

Q: And the half-life [10]?
A: The half-life was 4.2 h.

Q: And the AUC(0-t) [11]?
A: The AUC(0-t) was 754 ng·h/mL.

Q: And the half-life [12]?
A: The half-life was 3.5 h.

Q: What about the Vz [13] of the same molecule?
A: Its Vz is 109.3 L/kg.

Q: What about the inhibition [14] of the same molecule?
A: Its inhibition is 97.3%.

Q: And the inhibition [15]?
A: The inhibition was 94.1%.

Q: What about the inhibition [16] of the same molecule?
A: The inhibition was 25.7%.

Q: What about the inhibition [17] of the same molecule?
A: The inhibition was 11.9%.

Q: What about the inhibition (Homo sapiens) of the same molecule?
A: The inhibition was 23.7%.

Q: And the Activity [18]?
A: The Activity was 25.4%.

Q: And the viability at 2 µM [19]?
A: The viability at 2 µM was 51%.

Q: And the IC50 (NCI-H1975)?
A: Its IC50 is 4.7 nM.

Q: What about the IC50 (HCC827 [20]) of the same molecule?
A: The IC50 was 19.3 nM.

Q: What about the IC50 (HCC827 [21]) of the same molecule?
A: Its IC50 is 30.6 nM.

Q: And the IC50 [22]?
A: The IC50 was 5.2 nM.

Q: What about the IC50 [23] of the same molecule?
A: The IC50 was 4.3 nM.

Q: And the IC50 [24]?
A: Its IC50 is 26.8 nM.

Q: And the “Ratio IC50” value [25]?
A: The value was 10.

Q: What about the inhibition [26] of the same molecule?
A: Its inhibition is “Active”.

Q: And the Activity [27]?
A: Its Activity is “Active”.

Q: What about the inhibition [28] of the same molecule?
A: Its inhibition is “Active”.

Q: What about the Imax [29] of the same molecule?
A: The Imax was >98%.

Q: What about the IC50 [30] of the same molecule?
A: Its IC50 is < 50 nM.

Q: What about the Imax [31] of the same molecule?
A: The Imax was 99.9%.

Q: What about the Activity [32] of the same molecule?
A: The Activity was “Non-toxic”.

Q: What about the inhibition in vivo at 5 mg/kg [33] of the same molecule?
A: Its inhibition in vivo at 5 mg/kg is 71.5%.

Q: What about the inhibition (Mus musculus) of the same molecule?
A: The inhibition was “Active”.
